# Laboratory results reported in US12655175B2, “C17, C20, and C21 substituted neuroactive steroids and their methods of use” (Sage Therapeutics, LLC, priority 2016, dated 2026).
# Target: GABAA receptor
# Test: Steroid inhibition of [35S]-TBPS binding
# Conditions: rat brain cortical membranes, 3 nM [35S]-TBPS, in the presence of 5 mM GABA
# Description: Steroid Inhibition of TBPS Binding
# Briefly, cortices are rapidly removed following decapitation of carbon dioxide-anesthetized Sprague-Dawley rats ([…]). The cortices are homogenized in 10 volumes of ice-cold 0.32 M sucrose using a glass/teflon homogenizer and centrifuged at 1500×g for 10 min at 4° C. The resultant supernatants are centrifuged at 10,000×g for 20 min at 4° C. to obtain the P2 pellets. The P2 pellets are resuspended in 200 mM NaCl/50 mM Na—K phosphate pH 7.4 buffer and centrifuged at 10,000×g for 10 min at 4° C. This washing procedure is repeated twice and the pellets are resuspended in 10 volumes of buffer. Aliquots ([…]) of the membrane suspensions are incubated with 3 nM [^35S]-TBPS and […] aliquots of test drug dissolved in dimethyl sulfoxide (DMSO) (final 0.5%) in the presence of 5 mM GABA. The incubation is brought to a final volume of 1.0 mL with buffer. […] Following a 90 min incubation at room temp, the assays are terminated by filtration through glass fiber filters (Schleicher and Schuell No. 32) using a cell harvester (Brandel) and rinsed three times with ice-cold buffer. Filter bound radioactivity is measured by liquid scintillation spectrometry. Non-linear curve fitting of the overall data for each drug averaged for each concentration is done using Prism (GraphPad).
# Various compounds are or can be screened to determine their potential as modulators of [^35S]-TBPS binding in vitro. These assays are or can be performed in accordance with the above discussed procedures.
row,SMILES,IC50 [nM]
1,CCOC[C@@]1(O)CC[C@H]2[C@@H](CC[C@@H]3[C@@H]2CC[C@]2(C)[C@@H](C(=O)CNc4ccccc4)CC[C@@H]32)C1 [Compound 86],100 to 500
2,CN(CC1CCCCC1)C(=O)[C@H]1CC[C@H]2[C@@H]3CC[C@@H]4C[C@](C)(O)CC[C@@H]4[C@H]3CC[C@]12C [Compound 26],100 to 500
3,COC[C@]12CC[C@](O)(C(F)(F)F)C[C@H]1CC[C@H]1[C@@H]3CC[C@H](C(=O)Nc4ccccc4)[C@@]3(C)CC[C@@H]12 [Compound 78],50 to 100
4,CN(CC(=O)[C@H]1CC[C@H]2[C@@H]3CC[C@@H]4C[C@](C)(O)CC[C@@H]4[C@H]3CC[C@]12C)c1cccc(F)c1 [Compound 42],10 to 50
5,C[C@@]1(O)CC[C@@]2(C)[C@@H](CC[C@@H]3[C@@H]2CC[C@]2(C)[C@@H](Nc4ccc(F)cc4)CC[C@@H]32)C1 [Compound 89],100 to 500
6,C[C@@]1(O)CC[C@H]2[C@H](CC[C@@H]3[C@@H]2CC[C@]2(C)[C@@H](c4cccc(C#N)c4)CC[C@@H]32)C1 [Compound 105],10 to 50
7,C[C@@]1(O)CC[C@@]2(C)[C@@H](CC[C@@H]3[C@@H]2CC[C@]2(C)[C@@H](NC(=O)c4ccccc4)CC[C@@H]32)C1 [Compound 94],> 500
8,COC[C@]12CC[C@](O)(C(F)(F)F)C[C@H]1CC[C@H]1[C@@H]3CC[C@H](C(=O)NC4CCCCC4)[C@@]3(C)CC[C@@H]12 [Compound 80],> 500
9,C[C@@]1(O)CC[C@H]2[C@H](CC[C@@H]3[C@@H]2CC[C@]2(C)[C@@H](C4CCCC4)CC[C@@H]32)C1 [Compound 109],> 500
10,CN(CCc1ccccc1)C(=O)[C@H]1CC[C@H]2[C@@H]3CC[C@@H]4C[C@](C)(O)CC[C@@H]4[C@H]3CC[C@]12C [Compound 18],50 to 100
11,C[C@@]1(O)CC[C@H]2[C@H](CC[C@@H]3[C@@H]2CC[C@]2(C)[C@@H](C(=O)NC4CCOCC4)CC[C@@H]32)C1 [Compound 29],> 500
12,C[C@H](c1ccc(C#N)cc1)N(C)C(=O)[C@H]1CC[C@H]2[C@@H]3CC[C@@H]4C[C@@](O)(C(F)(F)F)CC[C@@H]4[C@H]3CC[C@]12C [Compound 69],100 to 500
13,C[C@H](c1ccccc1)N(C)C(=O)[C@H]1CC[C@H]2[C@@H]3CC[C@@H]4C[C@](C)(O)CC[C@@H]4[C@H]3CC[C@]12C [Compound 32],10 to 50
14,CCOC[C@@]1(O)CC[C@H]2[C@@H](CC[C@@H]3[C@@H]2CC[C@]2(C)[C@@H](C(=O)CN(C)c4ccccc4)CC[C@@H]32)C1 [Compound 85],> 500
15,CN(CC(=O)[C@H]1CC[C@H]2[C@@H]3CC[C@@H]4C[C@](C)(O)CC[C@@H]4[C@H]3CC[C@]12C)c1ccc(F)cc1 [Compound 43],10 to 50
16,CC1(O)CC[C@H]2[C@@H]3CC[C@@H]4C[C@](C)(O)CC[C@@H]4[C@H]3CC[C@@]21C (stereo partly drawn) [Compound 126],> 500
17,CN([C@H]1CC[C@H]2[C@@H]3CC[C@H]4C[C@](C)(O)CC[C@]4(C)[C@H]3CC[C@]12C)S(=O)(=O)c1ccccc1 [Compound 96],> 500
18,"CC[C@@H](NC(=O)[C@H]1CC[C@H]2[C@@H]3CC[C@@H]4C[C@](C)(O)CC[C@@H]4[C@H]3CC[C@]12C)c1ccc(F)cc1 (single isomer, unassigned) [Compound 34]",100 to 500
19,C[C@@]1(O)CC[C@H]2[C@H](CC[C@@H]3[C@@H]2CC[C@]2(C)[C@@H](C(=O)NCC4CCCCC4)CC[C@@H]32)C1 [Compound 17],100 to 500
20,CCO[C@H]1C[C@@]2(C)[C@@H](CC[C@@H]3[C@@H]2[C@@H](O)C[C@]2(C)[C@@H]([N+](=O)[O-])CC[C@@H]32)C[C@@H]1O [Compound 122],100 to 500
21,C[C@@]1(O)CC[C@@]2(C)[C@@H](CC[C@@H]3[C@@H]2CC[C@]2(C)[C@@H](Nc4ccccc4F)CC[C@@H]32)C1 [Compound 91],> 500
22,C[C@@]1(O)CC[C@H]2[C@H](CC[C@@H]3[C@@H]2CC[C@]2(C)[C@@H](c4cncnc4)CC[C@@H]32)C1 [Compound 104],50 to 100
23,CN(c1ccccc1)[C@H]1CC[C@H]2[C@@H]3CC[C@H]4C[C@](C)(O)CC[C@]4(C)[C@H]3CC[C@]12C [Compound 88],> 500

row,SMILES,IC50 [nM]
1,CCOC[C@@]1(O)CC[C@H]2[C@H](CC[C@@H]3[C@@H]2CC[C@]2(C)[C@@H](C(=O)N[C@H](CC)c4ccc(F)cc4)CC[C@@H]32)C1 [Compound 58],> 500
2,COC[C@]12CC[C@](O)(C(F)(F)F)C[C@H]1CC[C@H]1[C@@H]3CC[C@H](C(=O)CNc4ccccc4)[C@@]3(C)CC[C@@H]12 [Compound 77],10 to 50
3,C[C@@]1(O)CC[C@H]2[C@H](CC[C@@H]3[C@@H]2CC[C@]2(C)[C@@H](c4ccc(C#N)cc4)CC[C@@H]32)C1 [Compound 110],10 to 50
4,C[C@@]1(O)CC[C@H]2[C@H](CC[C@@H]3[C@@H]2CC[C@]2(C)[C@@H](C(=O)N4CCCOCC4)CC[C@@H]32)C1 [Compound 6],> 500
5,Cc1ccc([C@H]2CC[C@H]3[C@@H]4CC[C@@H]5C[C@](C)(O)CC[C@@H]5[C@H]4CC[C@]23C)cc1 [Compound 102],100 to 500
6,C[C@@]1(O)CC[C@H]2[C@H](CC[C@@H]3[C@@H]2CC[C@]2(C)[C@@H](C(=O)CNc4ccc(F)cc4)CC[C@@H]32)C1 [Compound 40],< 10
7,CN([C@H]1CC[C@H]2[C@@H]3CC[C@H]4C[C@](C)(O)CC[C@]4(C)[C@H]3CC[C@]12C)S(C)(=O)=O [Compound 98],> 500
8,CCOC[C@@]1(O)CC[C@H]2[C@H](CC[C@@H]3[C@@H]2CC[C@]2(C)[C@@H](C(=O)N4CCC[C@H]4c4ncco4)CC[C@@H]32)C1 [Compound 55],> 500
9,C[C@@]1(O)CC[C@H]2[C@H](CC[C@@H]3[C@@H]2CC[C@]2(C)[C@@H](C(=O)NCCc4ccccc4)CC[C@@H]32)C1 [Compound 19],100 to 500
10,CO[C@H]1C[C@@]2(C)[C@@H](CC[C@H]3[C@@H]4CC[C@H]([N+](=O)[O-])[C@@]4(C)CC(=O)[C@@H]32)C[C@@H]1O [Compound 121],100 to 500
11,C[C@@]1(O)CC[C@H]2[C@H](CC[C@@H]3[C@@H]2CC[C@]2(C)[C@@H](C(=O)CNc4ccccc4)CC[C@@H]32)C1 [Compound 38],< 10
12,CCN(CC)C(=O)[C@H]1CC[C@H]2[C@@H]3CC[C@@H]4C[C@](C)(O)CC[C@@H]4[C@H]3CC[C@]12C [Compound 2],100 to 500
13,C[C@@]1(O)CC[C@H]2[C@@H](CC[C@@H]3[C@@H]2CC[C@@]2(C)[C@H]3CCC2(O)c2ccccc2)C1 (stereo in doubt) [Compound 100],> 500
14,C[C@H]1CCCCN1C(=O)[C@H]1CC[C@H]2[C@@H]3CC[C@@H]4C[C@](C)(O)CC[C@@H]4[C@H]3CC[C@]12C [Compound 28],100 to 500
15,C[C@@]1(O)CC[C@@]2(C)[C@@H](CC[C@@H]3[C@@H]2CC[C@]2(C)[C@@H](NS(C)(=O)=O)CC[C@@H]32)C1 [Compound 97],> 500
16,COC[C@]12CC[C@@](C)(O)C[C@H]1CC[C@H]1[C@@H]3CC[C@H](C(=O)CNc4ccccc4)[C@@]3(C)CC[C@@H]12 [Compound 76],< 10
17,C[C@@]1(O)CC[C@@]2(C)[C@@H](CC[C@@H]3[C@@H]2CC[C@]2(C)[C@@H](Nc4ccccc4)CC[C@@H]32)C1 [Compound 87],100 to 500
18,C[C@@]1(O)CC[C@H]2[C@H](CC[C@@H]3[C@@H]2CC[C@]2(C)[C@@H](C(=O)N4CCCc5ccccc54)CC[C@@H]32)C1 [Compound 35],100 to 500
19,COC(=O)N(C)[C@H]1CC[C@H]2[C@@H]3CC[C@H]4C[C@](C)(O)CC[C@]4(C)[C@H]3CC[C@]12C [Compound 99],> 500
20,C[C@@]1(O)CC[C@H]2[C@H](CC[C@@H]3[C@@H]2CC[C@]2(C)[C@@H](c4cccnc4)CC[C@@H]32)C1 [Compound 106],10 to 50
21,CCOC[C@]12CC[C@@](C)(O)C[C@@H]1CC[C@H]1[C@@H]3CC[C@H](C(=O)CN(C)c4ccccc4)[C@@]3(C)CC[C@@H]12 [Compound 65],100 to 500
22,CN(C(=O)[C@H]1CC[C@H]2[C@@H]3CC[C@@H]4C[C@](C)(O)CC[C@@H]4[C@H]3CC[C@]12C)C1CCOCC1 [Compound 10],100 to 500
